In publication PMC10682951, “Structure-function and rational design of a spider toxin Ssp1a at human voltage-gated sodium channel subtypes” (Frontiers in Pharmacology, 2023):
Bridge positions count the residues as written; N and C are the ends. Peptide text beside a SMILES is read from it.

How the values were obtained:
Format in all cases: cell-based
hNaV1.3 = target: T1, hNaV1.3 (Homo sapiens, UniProt Q9NY46); test: Automated whole-cell patch-clamp (QPatch 16X), hNaV1.3; details: HEK293 cells expressing hNaV1.3 + β1 subunit; QPatch 16X; holding −80 mV, step to 0 mV; peptide incubated 2 min; 0.1% BSA; mean, SEM and n (3-12)
T1 construct: host or cells: HEK293
Protocol: (§1) Human embryonic kidney 293 (HEK293) cells stably expressing recombinant hNaV1.2, hNaV1.3 and hNaV1.7 and the β1 auxiliary subunit (Scottish Biomedical Drug Discovery, Glasgow, UK) were cultured in Minimal Essential medium (MEM) (Sigma-Aldrich, MO, United States) supplemented with 10% v/v FBS-New Zealand origin (Assay Matrix), 2 mM L-glutamine and selection antibiotics as per manufacturer’s recommendation. The HEK293 cells heterologously expressing mNaV1.7 and F813G-mNaV1.7 were generously provided by Prof Irina Vetter and were cultured in Minimal Essential medium (MEM) (Sigma-Aldrich, MO, United States) supplemented with 10% v/v FBS-New Zealand origin (Assay Matrix), 2 mM L-glutamine and hygromycin 100 μg/mL.
(§2) NaV channel currents from HEK293 cells stably expressing NaV subtypes and the β1 auxiliary subunit were recorded using an automated whole-cell patch clamp system QPatch 16X (Sophion Bioscience A/S, Ballerup, Denmark). As per the manufacturer’s guidelines, the cells were cultured for 48 h to achieve ∼80% confluency, detached using Detachin (Genlantis) and resuspended to 5 × 10^6 cells/mL in serum free media [CHO-cell SFM (Life Technologies), 25 mM HEPES and 100 U/mL penicillin/streptomycin]. The extracellular solution comprised (in mM) 1 CaCl2, 1 MgCl2, 5 HEPES, 3 KCl, 140 NaCl and 20 TEA-Cl, with the pH adjusted to 7.3 with NaOH. The intracellular solution comprised (in mM) 140 CsF, 1 EGTA, 5 CsOH, 10 HEPES and 10 NaCl, with the pH adjusted to 7.3 with CsOH. The osmolarity of both solutions were adjusted to 320 mOsm with sucrose. Compounds were prepared in extracellular solution containing 0.1% bovine serum albumin (Sigma-Aldrich). To obtain the dose-response curves, cells were maintained at a holding potential −80 mV and Na^+ currents were elicited by […] voltage steps to 0 mV from a −120 mV conditioning pulse applied for […]. Increasing concentrations of the peptide were incubated with the cells at the holding potential for 2 min before the voltage protocol was applied.
(§3) The experimental data were analysed using QPatch Assay software v5.6.4 and GraphPad Prism 7.0 using a four-parameter Hill equation [Y = Bottom + (Top—Bottom)/(1 + 10^(Log IC50—X)* Hillslope)] to fit concentration response curves by non-linear regression analysis and Student’s t-test. Data are presented as means ± standard error of mean (SEM) with number of independent experiments stated and p < 0.05 is considered statistically significant. Statistically insignificant shift in the activity is denoted by “little” while small but statistically significant shift in the activity is denoted by “slight” throughout the manuscript.

hNaV1.2 = target: T2, hNaV1.2 (Homo sapiens, UniProt Q99250); test: Automated whole-cell patch-clamp (QPatch 16X), hNaV1.2; details: for IC50: HEK293 cells expressing hNaV1.2 + β1 subunit, QPatch 16X, holding −80 mV, step to 0 mV, peptide incubated 2 min, 0.1% BSA, mean, SEM and n (2-7)
T2 construct: host or cells: HEK293
Protocol: as §1, §2, §3

hNaV1.7 = target: T3, hNaV1.7 (Homo sapiens, UniProt Q15858); test: Automated whole-cell patch-clamp (QPatch 16X), hNaV1.7; details: for IC50: HEK293 cells expressing hNaV1.7 + β1 subunit, QPatch 16X, holding −80 mV, step to 0 mV, peptide incubated 2 min, 0.1% BSA, mean, SEM and n (3-9)
T3 construct: host or cells: HEK293
Protocol: as §1, §2, §3

T1 sequence (Q9NY46 whole entry): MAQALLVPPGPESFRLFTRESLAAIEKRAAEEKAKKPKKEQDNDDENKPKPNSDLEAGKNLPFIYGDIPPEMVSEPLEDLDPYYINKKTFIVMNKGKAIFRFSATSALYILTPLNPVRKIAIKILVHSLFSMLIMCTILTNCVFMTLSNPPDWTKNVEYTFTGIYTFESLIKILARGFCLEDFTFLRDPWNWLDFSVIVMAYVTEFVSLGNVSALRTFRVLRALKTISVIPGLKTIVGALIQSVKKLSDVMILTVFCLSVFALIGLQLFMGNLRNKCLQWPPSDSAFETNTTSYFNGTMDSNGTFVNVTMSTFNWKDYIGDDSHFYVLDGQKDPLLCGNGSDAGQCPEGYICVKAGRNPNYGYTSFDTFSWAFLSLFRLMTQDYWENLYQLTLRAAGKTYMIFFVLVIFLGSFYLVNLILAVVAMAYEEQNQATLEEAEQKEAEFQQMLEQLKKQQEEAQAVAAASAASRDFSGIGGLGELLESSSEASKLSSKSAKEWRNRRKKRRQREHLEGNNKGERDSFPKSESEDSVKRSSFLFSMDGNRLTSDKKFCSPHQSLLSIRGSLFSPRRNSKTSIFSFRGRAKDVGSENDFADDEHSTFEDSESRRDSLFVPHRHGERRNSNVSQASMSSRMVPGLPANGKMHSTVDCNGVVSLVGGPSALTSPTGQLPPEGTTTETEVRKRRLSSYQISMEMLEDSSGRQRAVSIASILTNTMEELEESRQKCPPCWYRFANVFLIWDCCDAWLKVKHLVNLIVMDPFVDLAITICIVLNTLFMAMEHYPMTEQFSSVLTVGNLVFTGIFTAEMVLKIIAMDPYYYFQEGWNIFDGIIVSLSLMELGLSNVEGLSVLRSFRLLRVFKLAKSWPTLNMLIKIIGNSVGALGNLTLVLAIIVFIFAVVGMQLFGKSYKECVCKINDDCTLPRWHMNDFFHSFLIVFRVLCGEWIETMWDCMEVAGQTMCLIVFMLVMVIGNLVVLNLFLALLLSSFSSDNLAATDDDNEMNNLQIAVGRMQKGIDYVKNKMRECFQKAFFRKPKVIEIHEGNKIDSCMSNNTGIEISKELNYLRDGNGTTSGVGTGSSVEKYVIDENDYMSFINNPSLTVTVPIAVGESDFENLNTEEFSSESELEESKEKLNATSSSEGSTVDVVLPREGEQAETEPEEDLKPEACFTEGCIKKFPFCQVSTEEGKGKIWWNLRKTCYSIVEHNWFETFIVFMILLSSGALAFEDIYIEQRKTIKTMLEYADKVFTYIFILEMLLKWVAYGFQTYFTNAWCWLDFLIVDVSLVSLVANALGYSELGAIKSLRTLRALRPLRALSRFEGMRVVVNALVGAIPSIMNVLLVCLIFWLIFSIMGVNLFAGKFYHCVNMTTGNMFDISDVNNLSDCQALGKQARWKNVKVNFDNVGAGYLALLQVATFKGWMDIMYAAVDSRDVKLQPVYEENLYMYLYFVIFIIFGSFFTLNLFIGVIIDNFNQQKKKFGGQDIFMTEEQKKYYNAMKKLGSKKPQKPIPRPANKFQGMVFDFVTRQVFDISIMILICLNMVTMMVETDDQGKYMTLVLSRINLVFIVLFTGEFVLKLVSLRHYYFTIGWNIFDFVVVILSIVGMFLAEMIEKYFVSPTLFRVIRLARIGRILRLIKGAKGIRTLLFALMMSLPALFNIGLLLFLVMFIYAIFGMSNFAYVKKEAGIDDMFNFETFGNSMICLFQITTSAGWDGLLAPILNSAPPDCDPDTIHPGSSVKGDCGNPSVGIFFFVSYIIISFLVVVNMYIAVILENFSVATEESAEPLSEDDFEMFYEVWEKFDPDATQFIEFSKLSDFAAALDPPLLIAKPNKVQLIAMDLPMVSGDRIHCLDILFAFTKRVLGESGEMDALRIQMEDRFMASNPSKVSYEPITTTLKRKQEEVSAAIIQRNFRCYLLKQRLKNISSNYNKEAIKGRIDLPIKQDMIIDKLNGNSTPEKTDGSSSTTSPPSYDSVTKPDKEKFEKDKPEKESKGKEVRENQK
T1 sequence (Q07699 19-218, further chain): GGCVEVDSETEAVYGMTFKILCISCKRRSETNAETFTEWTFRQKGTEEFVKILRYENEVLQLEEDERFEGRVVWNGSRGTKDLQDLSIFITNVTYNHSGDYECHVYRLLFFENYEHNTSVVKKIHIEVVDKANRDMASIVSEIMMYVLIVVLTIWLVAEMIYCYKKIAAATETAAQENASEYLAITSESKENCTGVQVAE
T3 sequence (Q15858 whole entry): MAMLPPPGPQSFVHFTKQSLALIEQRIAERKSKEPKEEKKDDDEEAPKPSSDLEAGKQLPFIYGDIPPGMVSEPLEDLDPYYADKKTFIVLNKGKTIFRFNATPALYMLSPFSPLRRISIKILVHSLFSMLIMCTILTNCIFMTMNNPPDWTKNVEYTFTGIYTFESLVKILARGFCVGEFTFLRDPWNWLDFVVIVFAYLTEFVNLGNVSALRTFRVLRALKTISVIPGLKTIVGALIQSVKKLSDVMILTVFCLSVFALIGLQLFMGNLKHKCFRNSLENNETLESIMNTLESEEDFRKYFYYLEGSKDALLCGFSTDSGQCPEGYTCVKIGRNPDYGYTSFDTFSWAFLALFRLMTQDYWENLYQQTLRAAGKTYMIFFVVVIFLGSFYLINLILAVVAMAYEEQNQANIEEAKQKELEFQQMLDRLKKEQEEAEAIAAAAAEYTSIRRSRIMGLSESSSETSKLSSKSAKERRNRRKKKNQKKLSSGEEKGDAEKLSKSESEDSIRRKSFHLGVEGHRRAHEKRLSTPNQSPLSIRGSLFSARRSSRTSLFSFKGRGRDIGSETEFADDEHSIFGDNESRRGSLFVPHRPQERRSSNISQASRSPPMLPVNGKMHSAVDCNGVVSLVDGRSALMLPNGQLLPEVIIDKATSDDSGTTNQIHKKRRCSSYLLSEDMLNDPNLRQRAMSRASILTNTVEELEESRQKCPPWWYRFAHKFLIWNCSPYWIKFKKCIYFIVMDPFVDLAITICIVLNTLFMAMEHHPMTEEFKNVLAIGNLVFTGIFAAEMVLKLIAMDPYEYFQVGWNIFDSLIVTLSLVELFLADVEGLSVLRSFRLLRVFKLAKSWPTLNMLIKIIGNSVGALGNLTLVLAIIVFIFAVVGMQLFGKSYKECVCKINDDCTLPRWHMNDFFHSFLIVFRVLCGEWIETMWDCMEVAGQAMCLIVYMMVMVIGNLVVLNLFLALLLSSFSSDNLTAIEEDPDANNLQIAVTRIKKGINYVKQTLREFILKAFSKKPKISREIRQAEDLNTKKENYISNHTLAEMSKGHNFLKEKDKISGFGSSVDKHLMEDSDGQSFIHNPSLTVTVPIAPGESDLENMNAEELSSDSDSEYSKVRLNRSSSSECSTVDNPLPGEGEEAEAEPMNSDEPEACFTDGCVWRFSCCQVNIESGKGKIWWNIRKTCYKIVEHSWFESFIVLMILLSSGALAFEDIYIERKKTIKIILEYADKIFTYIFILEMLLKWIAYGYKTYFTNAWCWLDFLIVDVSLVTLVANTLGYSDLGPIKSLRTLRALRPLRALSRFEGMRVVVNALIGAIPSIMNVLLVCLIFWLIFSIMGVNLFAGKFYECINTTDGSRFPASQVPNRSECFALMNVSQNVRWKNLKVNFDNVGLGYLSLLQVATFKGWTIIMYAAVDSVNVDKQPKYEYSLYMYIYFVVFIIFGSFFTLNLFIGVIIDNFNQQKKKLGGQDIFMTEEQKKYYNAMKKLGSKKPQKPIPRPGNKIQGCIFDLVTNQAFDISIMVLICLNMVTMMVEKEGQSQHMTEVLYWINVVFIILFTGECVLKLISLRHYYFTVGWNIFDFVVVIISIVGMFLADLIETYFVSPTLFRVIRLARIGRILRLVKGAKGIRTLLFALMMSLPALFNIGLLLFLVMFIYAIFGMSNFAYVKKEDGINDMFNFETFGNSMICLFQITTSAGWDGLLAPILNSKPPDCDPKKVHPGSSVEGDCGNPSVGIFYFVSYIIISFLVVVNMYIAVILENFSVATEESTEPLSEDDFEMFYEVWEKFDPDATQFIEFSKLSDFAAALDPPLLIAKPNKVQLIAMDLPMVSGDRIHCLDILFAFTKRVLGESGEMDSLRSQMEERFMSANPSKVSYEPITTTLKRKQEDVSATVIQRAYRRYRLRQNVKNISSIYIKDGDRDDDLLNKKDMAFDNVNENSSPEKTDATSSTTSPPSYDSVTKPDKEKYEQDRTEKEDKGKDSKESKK
T3 sequence (Q07699 19-218, further chain): as the sequence (Q07699 19-218, further chain) above

Row | SMILES | IC50 (hNaV1.3) [nM] | IC50 (hNaV1.2) [nM] | IC50 (hNaV1.7) [nM] | Loss (reduction) in potency vs rSsp1a at hNaV1.2 (hNaV1.2; relative to wild type rSsp1a) [fold] | Loss (reduction) in potency vs rSsp1a at hNaV1.7 (hNaV1.7; relative to wild type rSsp1a) [fold]
1 | CC(C)C[C@H](NC(=O)[C@H](CC(=O)O)NC(=O)[C@@H](NC(=O)[C@H](CCCNC(=N)N)NC(=O)[C@@H]1CSSC[C@@H]2NC(=O)[C@H](CCCCN)NC(=O)[C@H](CC(N)=O)NC(=O)[C@H](CC(N)=O)NC(=O)[C@H](CC(N)=O)NC(=O)[C@@H]3CCCN3C(=O)[C@H](CC(=O)O)NC(=O)[C@@H]3CSSC[C@H](NC(=O)[C@H](C(C)C)NC(=O)[C@H](Cc4ccc(O)cc4)NC(=O)CNC(=O)[C@H](CCC(=O)O)NC(=O)[C@H](CSSC[C@H](NC(=O)[C@H](CC(=O)O)NC(=O)CN)C(=O)N[C@@H](CC(C)C)C(=O)NCC(=O)N[C@@H](Cc4c[nH]c5ccccc45)C(=O)N[C@@H](Cc4ccccc4)C(=O)N[C@@H](CO)C(=O)NCC(=O)N3)NC2=O)C(=O)N[C@@H](Cc2c[nH]cn2)C(=O)N[C@@H](Cc2c[nH]c3ccccc23)C(=O)N[C@@H](CCCCN)C(=O)N[C@@H](Cc2ccc(O)cc2)C(=O)N2CCC[C@H]2C(=O)N[C@@H](Cc2c[nH]c3ccccc23)C(=O)N1)[C@@H](C)O)C(=O)O [Y31T] | > 3000 | 874 | 545 |  | 
2 | CC(C)C[C@H](NC(=O)[C@H](CC(=O)O)NC(=O)[C@H](Cc1ccc(O)cc1)NC(=O)[C@H](CCCNC(=N)N)NC(=O)[C@@H]1CSSC[C@@H]2NC(=O)[C@H](CCCCN)NC(=O)[C@H](CC(N)=O)NC(=O)[C@H](CC(N)=O)NC(=O)[C@H](CC(N)=O)NC(=O)[C@@H]3CCCN3C(=O)[C@H](CC(=O)O)NC(=O)[C@@H]3CSSC[C@H](NC(=O)[C@H](C(C)C)NC(=O)[C@H](Cc4ccc(O)cc4)NC(=O)CNC(=O)[C@H](CCC(=O)O)NC(=O)[C@H](CSSC[C@H](NC(=O)[C@H](CC(=O)O)NC(=O)CN)C(=O)N[C@@H](CC(C)C)C(=O)NCC(=O)N[C@@H](Cc4c[nH]c5ccccc45)C(=O)N[C@@H](Cc4ccccc4)C(=O)N[C@@H](CO)C(=O)NCC(=O)N3)NC2=O)C(=O)N[C@@H](Cc2c[nH]cn2)C(=O)N[C@@H](C)C(=O)N[C@@H](CCCCN)C(=O)N[C@@H](Cc2ccc(O)cc2)C(=O)N2CCC[C@H]2C(=O)N[C@@H](Cc2c[nH]c3ccccc23)C(=O)N1)C(=O)O [W24A] (H-GDCLGWFSGCDPNNNKCCEGYVCHAKYPWCRYDL-OH; disulfide 3-18, 10-23, 17-30 (inferred); N-terminus and C-terminus assumed) | > 1000 | > 1000 | > 1000 | ≥ 10 | ≥ 10
3 | CC(C)C[C@H](NC(=O)[C@H](C)NC(=O)[C@H](Cc1ccc(O)cc1)NC(=O)[C@H](CCCNC(=N)N)NC(=O)[C@@H]1CSSC[C@@H]2NC(=O)[C@H](CCCCN)NC(=O)[C@H](CC(N)=O)NC(=O)[C@H](CC(N)=O)NC(=O)[C@H](CC(N)=O)NC(=O)[C@@H]3CCCN3C(=O)[C@H](CC(=O)O)NC(=O)[C@@H]3CSSC[C@H](NC(=O)[C@H](C(C)C)NC(=O)[C@H](Cc4ccc(O)cc4)NC(=O)CNC(=O)[C@H](CCC(=O)O)NC(=O)[C@H](CSSC[C@H](NC(=O)[C@H](CC(=O)O)NC(=O)CN)C(=O)N[C@@H](CC(C)C)C(=O)NCC(=O)N[C@@H](Cc4c[nH]c5ccccc45)C(=O)N[C@@H](Cc4ccccc4)C(=O)N[C@@H](CO)C(=O)NCC(=O)N3)NC2=O)C(=O)N[C@@H](Cc2c[nH]cn2)C(=O)N[C@@H](Cc2c[nH]c3ccccc23)C(=O)N[C@@H](CCCCN)C(=O)N[C@@H](Cc2ccc(O)cc2)C(=O)N2CCC[C@H]2C(=O)N[C@@H](Cc2c[nH]c3ccccc23)C(=O)N1)C(=O)O [D32A] | 221 | 110 | 118 |  | 
4 | CC(C)C[C@H](NC(=O)[C@H](CC(=O)O)NC(=O)[C@H](Cc1ccc(O)cc1)NC(=O)[C@H](CCCNC(=N)N)NC(=O)[C@@H]1CSSC[C@@H]2NC(=O)[C@H](CCCCN)NC(=O)[C@H](CC(N)=O)NC(=O)[C@H](CC(N)=O)NC(=O)[C@H](CC(N)=O)NC(=O)[C@@H]3CCCN3C(=O)[C@H](CC(=O)O)NC(=O)[C@@H]3CSSC[C@H](NC(=O)[C@H](C(C)C)NC(=O)[C@H](Cc4ccc(O)cc4)NC(=O)CNC(=O)[C@H](CCC(=O)O)NC(=O)[C@H](CSSC[C@H](NC(=O)[C@H](CC(=O)O)NC(=O)CN)C(=O)N[C@@H](CC(C)C)C(=O)NCC(=O)N[C@@H](Cc4c[nH]c5ccccc45)C(=O)N[C@@H](Cc4ccccc4)C(=O)N[C@@H](CO)C(=O)NCC(=O)N3)NC2=O)C(=O)N2CCC[C@H]2C(=O)N[C@@H](Cc2c[nH]c3ccccc23)C(=O)N[C@@H](CCCCN)C(=O)N[C@@H](Cc2ccc(O)cc2)C(=O)N2CCC[C@H]2C(=O)N[C@@H](Cc2c[nH]c3ccccc23)C(=O)N1)C(=O)O [H23P] (H-GDCLGWFSGCDPNNNKCCEGYVCPWKYPWCRYDL-OH; disulfide 3-18, 10-23, 17-30 (inferred); N-terminus and C-terminus assumed) | > 3000 | > 3000 | > 3000 |  | 
5 | CC(C)C[C@H](NC(=O)[C@H](CC(=O)O)NC(=O)[C@H](Cc1ccc(O)cc1)NC(=O)[C@H](CCCNC(=N)N)NC(=O)[C@@H]1CSSC[C@@H]2NC(=O)[C@H](CCCCN)NC(=O)[C@H](CC(N)=O)NC(=O)[C@H](CC(N)=O)NC(=O)[C@H](CC(N)=O)NC(=O)[C@@H]3CCCN3C(=O)[C@H](CC(=O)O)NC(=O)[C@@H]3CSSC[C@H](NC(=O)[C@H](C(C)C)NC(=O)[C@H](Cc4ccc(O)cc4)NC(=O)CNC(=O)[C@H](CCC(=O)O)NC(=O)[C@H](CSSC[C@H](NC(=O)[C@H](CC(=O)O)NC(=O)CN)C(=O)N[C@@H](CC(C)C)C(=O)N[C@@H](CCCNC(=N)N)C(=O)N[C@@H](Cc4c[nH]c5ccccc45)C(=O)N[C@@H](Cc4ccccc4)C(=O)N[C@@H](CO)C(=O)NCC(=O)N3)NC2=O)C(=O)N[C@@H](Cc2c[nH]cn2)C(=O)N[C@@H](Cc2c[nH]c3ccccc23)C(=O)N[C@@H](CCCCN)C(=O)N[C@@H](Cc2ccc(O)cc2)C(=O)N2CCC[C@H]2C(=O)N[C@@H](Cc2c[nH]c3ccccc23)C(=O)N1)C(=O)O [G4R] | 409 | 193 | 201 |  | 
6 | CC(C)C[C@@H]1NC(=O)[C@@H](NC(=O)[C@H](CC(=O)O)NC(=O)CN)CSSC[C@@H]2NC(=O)[C@@H]3CSSC[C@@H](C(=O)N[C@@H](CCCNC(=N)N)C(=O)N[C@@H](Cc4ccc(O)cc4)C(=O)N[C@@H](CC(=O)O)C(=O)N[C@@H](C)C(=O)O)NC(=O)[C@H](Cc4c[nH]c5ccccc45)NC(=O)[C@@H]4CCCN4C(=O)[C@H](Cc4ccc(O)cc4)NC(=O)[C@H](CCCCN)NC(=O)[C@H](Cc4c[nH]c5ccccc45)NC(=O)[C@H](Cc4c[nH]cn4)NC(=O)[C@H](CSSC[C@H](NC(=O)CNC(=O)[C@H](CO)NC(=O)[C@H](Cc4ccccc4)NC(=O)[C@H](Cc4c[nH]c5ccccc45)NC(=O)CNC1=O)C(=O)N[C@@H](CC(=O)O)C(=O)N1CCC[C@H]1C(=O)N[C@@H](CC(N)=O)C(=O)N[C@@H](CC(N)=O)C(=O)N[C@@H](CC(N)=O)C(=O)N[C@@H](CCCCN)C(=O)N3)NC(=O)[C@H](C(C)C)NC(=O)[C@H](Cc1ccc(O)cc1)NC(=O)CNC(=O)[C@H](CCC(=O)O)NC2=O [L33A] | > 3000 | 396 | 448 |  | 
7 | CC(C)C[C@H](NC(=O)[C@H](CC(=O)O)NC(=O)[C@H](Cc1ccc(O)cc1)NC(=O)[C@H](CCCNC(=N)N)NC(=O)[C@@H]1CSSC[C@@H]2NC(=O)[C@H](CCCCN)NC(=O)[C@H](CC(N)=O)NC(=O)[C@H](CC(N)=O)NC(=O)[C@H](CC(N)=O)NC(=O)[C@@H]3CCCN3C(=O)[C@H](CC(=O)O)NC(=O)[C@@H]3CSSC[C@H](NC(=O)[C@H](C(C)C)NC(=O)[C@H](Cc4ccc(O)cc4)NC(=O)CNC(=O)[C@H](CCC(=O)O)NC(=O)[C@H](CSSC[C@H](NC(=O)[C@H](CC(=O)O)NC(=O)CN)C(=O)N[C@@H](CC(C)C)C(=O)NCC(=O)N[C@@H](Cc4c[nH]c5ccccc45)C(=O)N[C@@H](Cc4ccccc4)C(=O)N[C@@H](CO)C(=O)NCC(=O)N3)NC2=O)C(=O)N[C@@H](Cc2c[nH]cn2)C(=O)N[C@@H](Cc2c[nH]c3ccccc23)C(=O)N[C@@H](CCCCN)C(=O)N[C@@H](Cc2ccc(O)cc2)C(=O)N[C@@H](C)C(=O)N[C@@H](Cc2c[nH]c3ccccc23)C(=O)N1)C(=O)O [P27A] | > 3000 | 270 | 166 |  | 
